Experimental data reported in patent US10470991B2, “(R)-N-(adamantyl-2-yl)pyrrolidine-2-carboxamide derivatives for cosmetic use” (DSM IP ASSETS B.V., priority 2015, dated 2019).
Where a name gives a salt, the structure may show the parent alone.

Experiments:
11β-HSD1 [1] = target: T1, 11β-HSD1 (Homo sapiens, UniProt P28845); test: Human keratinocytes assay: 11β-HSD1 activity (cortisol level in supernatant after cortisone treatment); format: cell-based; parameters: Primary human skin keratinocytes obtained from CellNTec advanced Cell Systems; host or cells: primary human skin keratinocytes; details: 1000 nM cortisone, 48 h, primary human keratinocytes
T1 sequence (P28845 whole entry): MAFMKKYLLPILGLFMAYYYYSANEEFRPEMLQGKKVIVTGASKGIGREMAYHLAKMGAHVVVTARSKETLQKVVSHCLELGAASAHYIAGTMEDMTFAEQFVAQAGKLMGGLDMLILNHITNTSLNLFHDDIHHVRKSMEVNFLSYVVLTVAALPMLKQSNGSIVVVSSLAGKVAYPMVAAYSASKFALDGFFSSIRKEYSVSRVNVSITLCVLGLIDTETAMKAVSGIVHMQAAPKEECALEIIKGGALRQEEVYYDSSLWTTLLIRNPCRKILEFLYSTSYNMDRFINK
Experimental: Cell Culture: Primary human skin keratinocytes obtained from CellNTec advanced Cell Systems were maintained in CnT-PR medium at 37° C. in a humidified 5% CO2-air atmosphere. Cells were subcultured before reaching confluence.
Assessment of 11β-HSD1 Activity: Human primary keratinocytes were pre-cultured in complete culture media (CnT-PR, CellNTec) to 90% of confluence. Subsequently cells were washed twice with PBS-buffer to remove remaining corticosteroids and media were exchanged to custom made hydrocortisone-free media. 48 h later cell culture supernatant was collected and cortisol levels were assessed with the Cortisol Parameter Assay Kit (R&D Systems) following the instructions of the protocol and using a Multiskan Ascent plate reader (Labsystems).
Calculation: % remaining 11β-HSD1 activity=(cortisol-level with inhibitor/cortisol-level without inhibitor)*100%

11β-HSD1 [2] = target: T1, 11β-HSD1; test: Inhibition of 11-beta-hydroxysteroid dehydrogenase type 1, activity assay in cell lysates (HEK-293 HHH7 clone, radiolabeled cortisone, TLC); format: biochemical; parameters: expressed in transfected cells; host or cells: HEK-293 (HHH7 clone), used as cell lysate; details: inhibitor 300 nM, 10 min 37° C.
Experimental: The cells were then washed with phosphate-buffered saline, and centrifuged for 4 min at 150×g. After removal of the supernatants, cell pellets were snap frozen on dry ice and stored at −80° C. until further use.
Cell lysates were incubated for 10 min at 37° C. in TS2 buffer (100 mM NaCl, 1 mM EGTA, 1 mM EDTA, 1 mM MgCl2, 250 mM sucrose, 20 mM Tris-HCl, pH 7.4) in a final volume of 22.2 μL containing either solvent (0.1% DMSO) or the inhibitor at the respective concentration as indicated in table 3-1.
Reactions were stopped after 10 min by adding an excess of unlabeled cortisone and cortisol (1:1, 2 mM, in methanol). The steroids were separated by TLC, using methanol-chloroform (1:9) as solvent, followed by scintillation counting and calculation of substrate concentration.

[3] = test system: Human skin from abdominal plastic surgery; test: Total dermal collagen after cortisone and cortisone/inhibitor treatment (human skin samples in culture, Picrosirius Red staining); format: cell-based; details: for Dermal collagen (score, untreated sample set to 100%): topical daily
Experimental: Human skin from abdominal plastic surgery was used. The skin samples were cut in pieces of ˜8×3 mm (Ø×thickness) and cultured up to day 6 in an air-liquid interface in a perforated ring of stainless steel in contact with a culture medium (modified Williams'E medium), while renewing the culture medium on day 3. Six skin specimens were used for each test sample. Each test sample (4 μl) was applied topically on top of each piece after cleaning of the surface with a cotton pad, which was subsequently covered with a 6 Ø mm delivery membrane, this procedure was repeated daily. After 6 days skin sections were stained with Picrosirius Red histochemical staining, that dyes collagen fibers in purple-red. The papillary dermis was selected for the analysis. The different colors of the pictures were separated by using a deconvolution matrix. After deconvolution only pink-reddish images are used. Within these images the evaluation of dermal collagen was performed by estimating both color intensity and distribution with IMAGE J (NIH) analysis software. Two slides of each skin sample were processed by image acquisition and related analysis (i.e. 12 images for each treatment).

remaining 11β-HSD1 activity (11β-HSD1 [1]; 3.16 nM inhibitor)	remaining 11β-HSD1 activity (11β-HSD1 [1]; 10.00 nM inhibitor)	remaining 11β-HSD1 activity (11β-HSD1 [1]; 31.62 nM inhibitor)	remaining 11β-HSD1 activity (11β-HSD1 [1]; 100.00 nM inhibitor)	remaining 11β-HSD1 activity (11β-HSD1 [1]; 316.20 nM inhibitor)	remaining 11β-HSD1 activity (11β-HSD1 [1]; 1000.00 nM inhibitor)	11β-HSD1 Remaining activity [% of control] (11β-HSD1 [2])	SMILES	also measured
100%	106%	89%	78%	52%	25%	37 % of control	CC(=O)N[C@@H](Cc1ccc(F)cc1)C(=O)N1CCC[C@@H]1C(=O)NC1C2CC3CC(C2)CC1C3 (stereo partly drawn) [(I-h), (R)-1-((S)-2-acetamido-3-(4-fluorophenyl)propanoyl)-N-(adamantan-2-yl)-pyrrolidine-2-carboxamide]	–
94%	92%	76%	57%	28%	12%	24 % of control	CC(=O)N[C@@H](Cc1ccc(C#N)cc1)C(=O)N1CCC[C@@H]1C(=O)NC1C2CC3CC(C2)CC1C3 (stereo partly drawn) [(I-l), (R)-1-((S)-2-acetamido-3-(4-cyanophenyl)-propanoyl)-N-(adamantan-2-yl)pyrrolidine-2-carboxamide]	Increase versus cortisone (#2) ([3]; 10 μM in DMSO, day 6): +4%; Dermal collagen (score, untreated sample set to 100%) ([3]; 10 μM in DMSO, day 6, cortisone/inhibitor treatment): 80%; Increase versus cortisone (#2) ([3]; 100 μM in DMSO, day 6): +17%; Dermal collagen (score, untreated sample set to 100%) ([3]; 100 μM in DMSO, day 6, cortisone/inhibitor treatment): 90%; Increase versus cortisone (#2) ([3]; 200 μM in DMSO, day 6): +24%; Dermal collagen (score, untreated sample set to 100%) ([3]; 200 μM in DMSO, day 6, cortisone/inhibitor treatment): 96%

The remaining lines, values behind:

SMILES	remaining 11β-HSD1 activity (11β-HSD1 [1]; 3.16 nM inhibitor)	remaining 11β-HSD1 activity (11β-HSD1 [1]; 10.00 nM inhibitor)	remaining 11β-HSD1 activity (11β-HSD1 [1]; 31.62 nM inhibitor)	remaining 11β-HSD1 activity (11β-HSD1 [1]; 100.00 nM inhibitor)	remaining 11β-HSD1 activity (11β-HSD1 [1]; 316.20 nM inhibitor)	remaining 11β-HSD1 activity (11β-HSD1 [1]; 1000.00 nM inhibitor)	11β-HSD1 Remaining activity [% of control] (11β-HSD1 [2])	also measured
CCOc1ccc(C[C@H](N)C(=O)N2CCC[C@@H]2C(=O)NC2C3CC4CC(C3)CC2C4)cc1 (stereo partly drawn) [(I-k), (R)-N-(adamantan-2-yl)-1-((S)-2-amino-3-(4-ethoxyphenyl)propanoyl)pyrrolidine-2-carboxamide trifluoroacetate]	95%	100%	89%	80%	58%	36%	41 % of control	–
C[C@H](N)C(=O)NCC(=O)NCCN1CCC[C@@H]1C(=O)NC1C2CC3CC(C2)CC1C3 (stereo partly drawn) [(I-o), (R)-N-(adamantan-2-yl)-1-(2-(2-((S)-2-aminopropanamido)acetamido)ethyl)pyrrolidine-2-carboxamide bistrifluoroacetate]	–	–	–	–	–	–	43 % of control	–
C[C@H](NC(=O)CN)C(=O)NCCN1CCC[C@@H]1C(=O)NC1C2CC3CC(C2)CC1C3 (stereo partly drawn) [(I-p), (R)-N-(adamantan-2-yl)-1-(2-((S)-2-(2-aminoacetamido)propanamido)ethyl)pyrrolidine-2-carboxamide bistrifluoroacetate]	–	–	–	–	–	–	57 % of control	–
NCC(=O)N[C@@H](Cc1c[nH]c2ccccc12)C(=O)N1CCC[C@@H]1C(=O)NC1C2CC3CC(C2)CC1C3 (stereo partly drawn) [(I-q), (R)-N-(adamantan-2-yl)-1-(glycyl-L-tryptophyl)pyrrolidine-2-carboxamide trifluoroacetate]	–	–	–	–	–	–	69 % of control	–
C[C@]12CCC(=O)C=C1CC[C@@H]1[C@@H]2C(=O)C[C@@]2(C)[C@H]1CC[C@]2(O)C(=O)CO [cortisone, reference compound]	–	–	–	–	–	–	–	Dermal collagen (score, untreated sample set to 100%) ([3]; cortisone 0.1 μM in DMSO alone, day 6, positive control for collagen inhibition): 77%
